Active and inactive are the calls of the source. How the calls were made is not given here.
Molecular target: Influenza A virus M2 proton channel (A/TW/4845/1999 H1N1)
Assay: M2 proton channel binding, NMR based, influenza A virus H1N1 strain (AID 1549)
Settings: NMR binding screen, M2 protein

Structure (SMILES)	Kd
Cc1cc(NC(=O)c2ocnc2C)no1	> 4 mM (inactive)
Cn1nc(C(=O)NCc2cccnc2)c2ccccc2c1=O	> 4 mM (inactive)
CC(C)c1ccc(NC(=O)C(N)=O)cc1	> 4 mM (inactive)
O=C(O)c1cccnc1Oc1ccccc1	> 4 mM (inactive)
O[C@H]1C=C2CCN3Cc4cc5c(cc4C(C23)[C@@H]1O)OCO5 (stereo not given in full)	> 4 mM (inactive)
COc1ccccc1NC(=O)C1CCC(=O)N1 (stereo not given)	> 4 mM (inactive)
Clc1ccc(-n2ccnc2)nn1	> 4 mM (inactive)
Nc1ncnc2c1ncn2C1C[C@H](O)[C@@H](CO)O1 (stereo not given in full)	> 4 mM (inactive)
CN1CCN(C(=O)/C=C\C(=O)O)CC1	> 4 mM (inactive)
O=C(c1cccs1)N1CCCc2ccccc21	> 4 mM (inactive)
O=C(c1cc(Cl)cc(Cl)c1)N1CCOCC1	> 4 mM (inactive)
C/C=C/c1ccc2c(c1)OCO2	> 4 mM (inactive)
Nc1cccc(S(=O)(=O)N2CCOCC2)c1	> 4 mM (inactive)
COCCn1c(C)cc(O)cc1=O	> 4 mM (inactive)
Nc1ccc2c(c1)CCCC2=O	> 4 mM (inactive)
O=C1CC(=O)N(c2ccccc2)C(=O)N1	> 4 mM (inactive)
O=S(=O)(N1CCCCC1)n1nnc2ccccc21	> 4 mM (inactive)
Cc1ccc2cc(C(=O)O)ccc2n1	> 4 mM (inactive)
COc1cc(C2NC(=S)NC(C)=C2C(C)=O)ccc1O (stereo not given)	> 4 mM (inactive)
CC(C)c1ccc2c(c1O)CC[C@H]1C3=C(CC[C@]21C)C(=O)OC3	> 4 mM (inactive)
CC1(C)C2CC(=O)[C@]3(C)C(CC[C@@]4(C)[C@H](c5ccoc5)OC(=O)[C@H]5O[C@]543)[C@@]2(C)C(=O)C[C@H]1O (stereo not given in full)	> 4 mM (inactive)
COc1cc(OC)c2c(=O)c(OC)c(-c3ccc(OC)c(OC)c3)oc2c1	> 4 mM (inactive)
CSc1nnc2c(n1)OC(C)=Nc1ccccc1-2	> 4 mM (inactive)
COC(=O)C1=CO[C@@H](O[C@@H]2O[C@H](CO)[C@@H](O)[C@H](O)[C@H]2O)[C@@H]2[C@@H](C)[C@@H](O)C[C@H]12	> 4 mM (inactive)

Structure (SMILES)	Kd
c1ccc(-c2noc(-c3ccco3)n2)nc1	> 4 mM (inactive)
Cc1cc2ncc(C(=O)Nc3ccccc3)c(C)n2n1	> 4 mM (inactive)
ON=c1ccc2nc3ccccc3nc2cc1	> 4 mM (inactive)
O=C(Nc1ccncc1)c1cncc(Br)c1	> 4 mM (inactive)
NC(=O)c1ccc(N2CCCCC2)c(N)c1	> 4 mM (inactive)
COc1cc2ccc(=O)oc2c2ccoc12	> 4 mM (inactive)
NC(=O)c1ccc(NC(=O)c2cccnc2)cc1	> 4 mM (inactive)
Cc1nc2sc3c(c2c(=N)n1N)CC(C)(C)OC3	> 4 mM (inactive)
O=C(O)c1ccc2c(c1)OCCO2	> 4 mM (inactive)
Cc1nnsc1-c1onc(C)c1C(=O)O	> 4 mM (inactive)
c1ccc(-c2nnc3sc(-c4ccncc4)nn23)cc1	> 4 mM (inactive)
NC(=O)CSc1ccc2nnc(-c3cccs3)n2n1	> 4 mM (inactive)
O=C(O)c1cccc2c1OCCO2	> 4 mM (inactive)
CC(C)[C@@H]1CC[C@@H](C)C[C@H]1OC(=O)c1ccccc1	> 4 mM (inactive)
O=C(c1ccco1)N1CCCN(C(=O)c2ccco2)CC1	> 4 mM (inactive)
O=C(Cc1ccccc1)Nc1c[nH]c(=O)[nH]c1=O	> 4 mM (inactive)
O=S1(=O)CCC(NC(=S)Nc2ccccc2)C1 (stereo not given)	> 4 mM (inactive)
CC(=O)Nc1cnn(-c2ccccc2)c(=O)c1Cl	> 4 mM (inactive)
COc1cc2c(cc1OC)[C@@]13CCN4CC5=CCOC6CC(=O)N2C1[C@H]6[C@H]5C[C@H]43 (stereo not given in full)	> 4 mM (inactive)
Cc1cc(C)c2ccc[n+]([O-])c2c1O	> 4 mM (inactive)
O=C1CSC(c2ccc3c(c2)OCO3)N1 (stereo not given)	> 4 mM (inactive)
CS(=O)(=O)N1CCN(C(=O)c2ccccc2)C1	> 4 mM (inactive)
COc1ccccc1-c1n[nH]c(=O)o1	> 4 mM (inactive)
O=C(NCc1ccccc1F)c1cccs1	> 4 mM (inactive)

Structure (SMILES)	Kd
Cc1n[nH]c(C)c1-c1ccccc1C(=O)O	> 4 mM (inactive)
Cn1c(SCc2ccon2)nc2ccccc2c1=O	> 4 mM (inactive)
NC(=O)c1oc2ccccc2c1N	> 4 mM (inactive)
COc1ccc(/C=C/C(=O)O)cc1OC	> 4 mM (inactive)
NC(Cn1ccc(=O)c(O)c1)C(=O)O (stereo not given)	> 4 mM (inactive)
Cc1cc(=O)[nH]c(NCC(=O)O)n1	> 4 mM (inactive)
Nc1cccc(-n2cnnn2)c1	> 4 mM (inactive)
O=C1CCNc2cc3ccccc3cc21	> 4 mM (inactive)
NC1=C([N+](=O)[O-])C(=O)c2ccccc21	> 4 mM (inactive)
CC1(C)CC(=O)c2sc(N)nc2C1	> 4 mM (inactive)
O=C(Nc1nncs1)Oc1ccccc1	> 4 mM (inactive)
CSc1nn(-c2ccccc2)c(N)c1C#N	> 4 mM (inactive)
COc1cc2c(cc1-c1cc3cc4ccoc4cc3oc1=O)OCO2	> 4 mM (inactive)
Nc1ccc2nsnc2c1	> 4 mM (inactive)
c1cc(C(N2CCOCC2)N2CCOCC2)ccn1	> 4 mM (inactive)
Cc1ncc(CC(=O)O)s1	> 4 mM (inactive)
CCOC(=O)c1nc2ccccc2c(=O)n1N	> 4 mM (inactive)
CS(=O)(=O)NN=C1CCCCC1	> 4 mM (inactive)
O=C(NCc1ccco1)c1ccc(Br)s1	> 4 mM (inactive)
C=C(C)C1Cc2c(ccc(C(=O)O)c2O)O1 (stereo not given)	> 4 mM (inactive)
Cc1cc(SCC(=O)c2ccccc2)nc(=O)[nH]1	> 4 mM (inactive)
O=C(O)CCn1c(=O)oc2ccccc21	> 4 mM (inactive)
COC(=O)[C@@]1(C)CCC[C@]2(C)c3ccc(O)c(C(C)C)c3CCC12 (stereo not given in full)	> 4 mM (inactive)
O=C1NC(=S)NC(=O)C1=Cc1ccccc1O	> 4 mM (inactive)

Structure (SMILES)	Kd
Cc1cc(C(=O)N2CCN(c3ccccn3)CC2)no1	> 4 mM (inactive)
COC(=O)c1ccc2ncccc2c1	> 4 mM (inactive)
Cc1nn(CC(=O)N2CCCCC2)c(=O)c2ccccc12	> 4 mM (inactive)
C[C@H]1O[C@@H](O[C@H]2[C@@H](O)C[C@H](O[C@H]3[C@@H](O)C[C@H](O[C@H]4CC[C@]5(C)C6C[C@@H](O)[C@]7(C)[C@@H](C8=CC(=O)OC8)CC[C@]7(O)C6CC[C@@H]5C4)O[C@@H]3C)O[C@@H]2C)C[C@H](O)[C@@H]1O (stereo not given in full)	> 4 mM (inactive)
OCC12COC3c4ccccc4C(OC1)N32 (stereo not given)	> 4 mM (inactive)
COC(=O)/C(=C1\OC(=O)C(c2ccccc2)C1=O)c1ccccc1 (stereo not given)	> 4 mM (inactive)
CC[C@@]1(O)C[C@H](O)c2c(cc3c(c2O)C(=O)c2c(O)ccc(O)c2C3=O)[C@H]1C(=O)OC	> 4 mM (inactive)
COc1ccccc1/C=C/CN1CCOCC1	> 4 mM (inactive)
O=C1CN(C(=O)CN2CCOCC2)c2ccccc2N1	> 4 mM (inactive)
Cc1ccc2cc(N)ccc2n1	> 4 mM (inactive)
NCc1ccc(-c2csnn2)cc1	> 4 mM (inactive)
COc1ccc(S(N)(=O)=O)cc1	> 4 mM (inactive)
C[C@]12CCC(=O)C=C1CCC1C2C(=O)C[C@@]2(C)C1CC[C@]2(O)C(=O)CO (stereo not given in full)	> 4 mM (inactive)
COc1ccc(-c2coc3cc(O)ccc3c2=O)c(OC)c1	> 4 mM (inactive)
Cn1cnnc1SCC(=O)Nc1nccs1	> 4 mM (inactive)
Cn1c(=O)c2c(n(C)c1=O)=NC1(CCCCC1)N=2	> 4 mM (inactive)
Cc1ccc(NC(=O)CN2C(=O)CSC2=O)cc1	> 4 mM (inactive)
O=[N+]([O-])c1cccc(-c2nnco2)c1	> 4 mM (inactive)
COc1cc(NC(=O)c2ccccc2)c(C)cc1N	> 4 mM (inactive)
CC(C)NC1CS(=O)(=O)CC1O (stereo not given)	> 4 mM (inactive)
O=C1c2ccncc2C(=O)N1CNc1ccccn1	> 4 mM (inactive)
CNC(=O)c1ccccc1-c1ccccc1	> 4 mM (inactive)
Cc1nc2nc(COc3ccccc3)nn2c(C)c1Cl	> 4 mM (inactive)
CCNC(CC(=O)Nc1ccc(F)cc1)C(=O)O (stereo not given)	> 4 mM (inactive)

Structure (SMILES)	Kd
CC(=O)N1CC2(C)CN(C(C)=O)CC(C)(C1)C2O (stereo not given)	> 4 mM (inactive)
O=C(c1cnsn1)N1CCN(c2ccccc2)CC1	> 4 mM (inactive)
CC1(C)N=C2C(=[N+]1[O-])CCC/C2=N\O	> 4 mM (inactive)
COc1ccc(-c2nc3nc(C)cc(C)n3n2)cc1	> 4 mM (inactive)
Oc1ccc(-n2cncn2)cc1	> 4 mM (inactive)
CC1(C)Cc2nc(N3CCOCC3)c(C#N)cc2CO1	> 4 mM (inactive)
CC(=O)Nc1ccc(S(=O)(=O)N2CCN=C2C)cc1	> 4 mM (inactive)
Clc1ccccc1OCc1nc(-c2ccccn2)no1	> 4 mM (inactive)
c1cnc(N2CCSCC2)nc1	> 4 mM (inactive)
Cc1nccc2c1[nH]c1ccccc12	> 4 mM (inactive)
CN(C)C(=O)CSc1cccc2cccnc12	> 4 mM (inactive)
O=C(c1cc2ccccc2o1)c1nc2c(n1O)CCCCC2	> 4 mM (inactive)
Cc1c(C(=O)Nc2ccccc2)sc(N)c1C(N)=O	> 4 mM (inactive)
Cc1ccc(/C=C2/C(=O)N=C(N)N2C)s1	> 4 mM (inactive)
COC(=O)c1noc(-c2ccc(OC)cc2)n1	> 4 mM (inactive)
Cc1ccc(-c2nn(C)c(=O)c3ccccc23)cc1CO	> 4 mM (inactive)
O=C(O)c1c[nH]c2ccccc12	> 4 mM (inactive)
CC12CC[C@H](CC1=O)C2(C)C	> 4 mM (inactive)
Cc1c(N=CN2CCOCC2)c(=O)n(C)c(=O)n1C	> 4 mM (inactive)
COc1ccc(NC(=O)CSc2nccc(=O)[nH]2)cc1	> 4 mM (inactive)
CCSc1n[nH]c(=O)[nH]c1=O	> 4 mM (inactive)
c1csc(-c2nnc3ccccn23)c1	> 4 mM (inactive)
Cn1cc(Cl)c(C(=O)Nc2ccc(F)cc2F)n1	> 4 mM (inactive)
COc1cc(OC)c2c(=O)c(O)c(-c3ccc(OC)c(OC)c3)oc2c1	> 4 mM (inactive)
